Test results published in patent US20260262643A1, “HERBICIDAL BENZOXAZINES” (FMC CORPORATION, priority 2022, published 2026).

Columns and labels:
barnyardgrass [1] = assay: Test C preemergence; assay type: in vivo, Echinochloa crusgalli
Procedure, shortened: (§1)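 Seeds sown in loam soil–sand blend received a directed preemergence soil spray of test chemical in non-phytotoxic solvent with surfactant; postemergence plants (2–10 cm, one- to two-leaf stage) were sprayed with the same formulation. Greenhouse-held 10 days, then visually rated for injury versus untreated controls, 0 (no effect) to 100 (complete control).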

blackgrass [2] = assay: Test C preemergence; assay type: in vivo, Alopecurus myosuroides
Procedure, shortened: as §1

corn [3] = assay: Test C preemergence; assay type: in vivo, Zea mays; conditions: Preemergence, 125 g ai/ha; 0 to 100 scale, 0 no effect, 100 complete control
Procedure, shortened: as §1

foxtail, giant [4] = assay: Test C preemergence; assay type: in vivo, Setaria faberi
Procedure, shortened: as §1

kochia [5] = assay: Test C preemergence; assay type: in vivo, Bassia scoparia
Procedure, shortened: as §1

oat, wild [6] = assay: Test C preemergence; assay type: in vivo, Avena fatua
Procedure, shortened: as §1

pigweed, palmer [7] = assay: Test C preemergence; assay type: in vivo, Amaranthus palmeri
Procedure, shortened: as §1

ragweed [8] = assay: Test C preemergence; assay type: in vivo, Ambrosia artemisiifolia
Procedure, shortened: as §1

ryegrass, Italian [9] = assay: Test C preemergence; assay type: in vivo, Lolium multiflorum
Procedure, shortened: as §1

soybean [10] = assay: Test C preemergence; assay type: in vivo, Glycine max
Procedure, shortened: as §1

wheat [11] = assay: Test C preemergence; assay type: in vivo, Triticum aestivum
Procedure, shortened: as §1

barnyardgrass [12] = assay: Test C postemergence; assay type: in vivo, Echinochloa crusgalli; conditions: 10 days, 0 to 100 scale (0 no effect, 100 complete control)
Procedure, shortened: as §1

blackgrass [13] = assay: Test C postemergence; assay type: in vivo, Alopecurus myosuroides; conditions: 10 days, 0 to 100 scale (0 no effect, 100 complete control)
Procedure, shortened: as §1

corn [14] = assay: Test C postemergence; assay type: in vivo, Zea mays; conditions: 10 days, 0 to 100 scale (0 no effect, 100 complete control)
Procedure, shortened: as §1

foxtail, giant [15] = assay: Test C postemergence; assay type: in vivo, Setaria faberi; conditions: 10 days, 0 to 100 scale (0 no effect, 100 complete control)
Procedure, shortened: as §1

kochia [16] = assay: Test C postemergence; assay type: in vivo, Bassia scoparia; conditions: 10 days, 0 to 100 scale (0 no effect, 100 complete control)
Procedure, shortened: as §1

oat, wild [17] = assay: Test C postemergence; assay type: in vivo, Avena fatua; conditions: 10 days, 0 to 100 scale (0 no effect, 100 complete control)
Procedure, shortened: as §1

pigweed, palmer [18] = assay: Test C postemergence; assay type: in vivo, Amaranthus palmeri; conditions: 10 days, 0 to 100 scale (0 no effect, 100 complete control)
Procedure, shortened: as §1

ragweed [19] = assay: Test C postemergence; assay type: in vivo, Ambrosia artemisiifolia; conditions: 10 days, 0 to 100 scale (0 no effect, 100 complete control)
Procedure, shortened: as §1

ryegrass, Italian [20] = assay: Test C postemergence; assay type: in vivo, Lolium multiflorum; conditions: 10 days, 0 to 100 scale (0 no effect, 100 complete control)
Procedure, shortened: as §1

soybean [21] = assay: Test C postemergence; assay type: in vivo, Glycine max; conditions: 10 days, 0 to 100 scale (0 no effect, 100 complete control)
Procedure, shortened: as §1

wheat [22] = assay: Test C postemergence; assay type: in vivo, Triticum aestivum; conditions: 10 days, 0 to 100 scale (0 no effect, 100 complete control)
Procedure, shortened: as §1

galium = assay: Test C postemergence; assay type: in vivo, Galium aparine; conditions: 10 days, 0 to 100 scale (0 no effect, 100 complete control)
Procedure, shortened: as §1

horseweed = assay: Test C postemergence; assay type: in vivo, Erigeron canadensis; conditions: 10 days, 0 to 100 scale (0 no effect, 100 complete control)
Procedure, shortened: as §1

barnyardgrass [23] = assay: Test D flooded paddy test; assay type: in vivo, Echinochloa crus-galli; conditions: 250 g ai/ha, applied to paddy water, visual rating after 13 to 14 days, scale 0 to 100 (0 no effect, 100 complete control)
Procedure, shortened: (§2)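 Visual ratings from 0, meaning no effect, to 100, meaning complete control, were assigned against untreated controls 13 to 14 days after compounds were added to the floodwater of pots kept 3 cm deep, with plants at the 2-leaf stage.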

ducksalad = assay: Test D flooded paddy test; assay type: in vivo, Heteranthera limosa; conditions: 250 g ai/ha, applied to paddy water, visual rating after 13 to 14 days, scale 0 to 100 (0 no effect, 100 complete control)
Procedure, shortened: as §2

rice = assay: Test D flooded paddy test; assay type: in vivo, Oryza sativa; conditions: 250 g ai/ha, applied to paddy water, visual rating after 13 to 14 days, scale 0 to 100 (0 no effect, 100 complete control)
Procedure, shortened: as §2

sedge, umbrella = assay: Test D flooded paddy test; assay type: in vivo, Cyperus difformis; conditions: 250 g ai/ha, applied to paddy water, visual rating after 13 to 14 days, scale 0 to 100 (0 no effect, 100 complete control)
Procedure, shortened: as §2

[24] = 500 g ai/ha, preemergence, 0 to 100 scale (0 no effect, 100 complete control)
[25] = Preemergence, 125 g ai/ha, 0 to 100 scale, 0 no effect, 100 complete control

## COc1ccc(-n2cnc(C3CC3)n2)cc1C(=O)N1C[C@H](C)Oc2c(Cl)cccc21 [Compound 324]
Barnyardgrass [1]; [24]
  Barnyardgrass plant response rating: 100
Barnyardgrass [1]; [25]
  Plant response rating, Barnyardgrass: 90
Blackgrass [2]; [24]
  Blackgrass plant response rating: 90
Blackgrass [2]; [25]
  Plant response rating, Blackgrass: 70
Corn [3]
  Plant response rating, Corn: 0
foxtail, giant [4]; [24]
  Foxtail, Giant plant response rating: 100
foxtail, giant [4]; [25]
  Plant response rating, Foxtail, Giant: 90
Kochia [5]; [24]
  Kochia plant response rating: 90
Kochia [5]; [25]
  Plant response rating, Kochia: 90
oat, wild [6]; [24]
  Oat, Wild plant response rating: 90
oat, wild [6]; [25]
  Plant response rating, Oat, Wild: 0
pigweed, palmer [7]; [24]
  Pigweed, Palmer plant response rating: 100
pigweed, palmer [7]; [25]
  Plant response rating, Pigweed, Palmer: 100
Ragweed [8]; [24]
  Ragweed plant response rating: 90
Ragweed [8]; [25]
  Plant response rating, Ragweed: 50
ryegrass, Italian [9]; [24]
  Ryegrass, Italian plant response rating: 100
ryegrass, Italian [9]; [25]
  Plant response rating, Ryegrass, Italian: 80
Soybean [10]; [24]
  Soybean plant response rating: 90
Soybean [10]; [25]
  Plant response rating, Soybean: 100
Wheat [11]; [24]
  Wheat plant response rating: 90
Wheat [11]; [25]
  Plant response rating, Wheat: 10
Barnyardgrass [12]; 500 g ai/ha, postemergence
  Plant response rating, Barnyardgrass: 80
Barnyardgrass [12]; Postemergence, 125 g ai/ha
  Plant response rating, Barnyardgrass: 50
Blackgrass [13]; 500 g ai/ha, postemergence
  Plant response rating, Blackgrass: 90
Blackgrass [13]; Postemergence, 125 g ai/ha
  Plant response rating, Blackgrass: 90
Corn [14]; 500 g ai/ha, postemergence
  Plant response rating, Corn: 90
Corn [14]; Postemergence, 125 g ai/ha
  Plant response rating, Corn: 70
foxtail, giant [15]; 500 g ai/ha, postemergence
  Plant response rating, Foxtail, Giant: 90
foxtail, giant [15]; Postemergence, 125 g ai/ha
  Plant response rating, Foxtail, Giant: 80
Kochia [16]; 500 g ai/ha, postemergence
  Plant response rating, Kochia: 100
Kochia [16]; Postemergence, 125 g ai/ha
  Plant response rating, Kochia: 90
oat, wild [17]; 500 g ai/ha, postemergence
  Plant response rating, Oat, Wild: 70
oat, wild [17]; Postemergence, 125 g ai/ha
  Plant response rating, Oat, Wild: 10
pigweed, palmer [18]; 500 g ai/ha, postemergence
  Plant response rating, Pigweed, Palmer: 100
pigweed, palmer [18]; Postemergence, 125 g ai/ha
  Plant response rating, Pigweed, Palmer: 90
Ragweed [19]; 500 g ai/ha, postemergence
  Plant response rating, Ragweed: 70
Ragweed [19]; Postemergence, 125 g ai/ha
  Plant response rating, Ragweed: 60
ryegrass, Italian [20]; 500 g ai/ha, postemergence
  Plant response rating, Ryegrass, Italian: 50
ryegrass, Italian [20]; Postemergence, 125 g ai/ha
  Plant response rating, Ryegrass, Italian: 40
Soybean [21]; 500 g ai/ha, postemergence
  Plant response rating, Soybean: 100
Soybean [21]; Postemergence, 125 g ai/ha
  Plant response rating, Soybean: 100
Wheat [22]; 500 g ai/ha, postemergence
  Plant response rating, Wheat: 30
Wheat [22]; Postemergence, 125 g ai/ha
  Plant response rating, Wheat: 30
galium; 500 g ai/ha, postemergence
  Plant response rating, Galium: 100
galium; Postemergence, 125 g ai/ha
  Plant response rating, Galium: 100
horseweed; 500 g ai/ha, postemergence
  Plant response rating, Horseweed: 80
horseweed; Postemergence, 125 g ai/ha
  Plant response rating, Horseweed: 60
Barnyardgrass [23]
  Plant response rating, Barnyardgrass (Flood): 40
ducksalad
  Plant response rating, Ducksalad (Flood): 80
rice
  Plant response rating, Rice (Flood): 10
sedge, umbrella
  Plant response rating, Sedge, Umbrella (Flood): 98
